The results in this text go back to US20240041042A1, “1-(PYRIDYL)-5-AZINYLPYRAZOLE DERIVATIVES, AND THEIR USE FOR CONTROL OF UNDESIRED PLANT GROWTH” (Bayer Aktiengesellschaft, priority 2020, published 2024).

Type in all cases: in vivo
One data set relates to Viola tricolor (VIOTR). The data set can be described thus: Post-emergence herbicidal action against VIOTR. An outline of the steps:
(§1)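 Post-emergence greenhouse spray, one-leaf stage, 600 l/ha water plus 0.5% additive; WP or EC formulations; application rates 320 g/ha or lower. Visual % damage vs untreated controls at ~3 weeks.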

For data set [1], the system named is Alopecurus myosuroides (ALOMY). The data set can be described thus: Post-emergence herbicidal action against ALOMY. Particulars: visual rating about 3 weeks after treatment vs untreated controls (100% = plants have died, 0% = like control plants). A digest of the protocol: as §1
The test system of the next data set is Setaria viridis (SETVI). The data set can be described thus: Post-emergence herbicidal action against SETVI. A digest of the protocol: as §1
The subject of data set [2] is Digitaria sanguinalis (DIGSA). The data set is described as follows: Post-emergence herbicidal action against DIGSA. Conditions: visual rating about 3 weeks after treatment. The procedure:
Seeds of monocotyledonous and dicotyledonous weeds and crop plants are placed in sandy loam in plastic or organic planting pots, covered with soil and cultivated in a greenhouse under controlled growth conditions. 2 to 3 weeks after sowing, the test plants are treated at the one-leaf stage. The compounds of the invention, formulated in the form of wettable powders (WP) or as emulsion concentrates (EC), are then sprayed onto the green parts of the plants as aqueous suspension or emulsion with addition of 0.5% additive at a water application rate of 600 l/ha (converted). After the test plants have been kept in the greenhouse under optimum growth conditions for about 3 weeks, the activity of the preparations is rated visually in comparison to untreated controls. For example, 100% activity=the plants have died, 0% activity=like control plants.
Tables B1 to B13 below show the effects of selected compounds of the general formula (I) according to Table 1 on various harmful plants and at an application rate corresponding to 320 g/ha or lower, which were obtained by the experimental procedure mentioned above. The appendices “a”, “b” and “c” give differentiation by dosage used with otherwise the same harmful plants tested.

Data set [3] concerns Polygonum convolvulus (POLCO). The data set is described as follows: Post-emergence herbicidal action against POLCO. Conditions: dosage 320 g/ha. A digest of the protocol:
as §1

Data set [4] has as its system Verconica persica (VERPE). The data set is described as follows: Post-emergence herbicidal action against VERPE. An outline of the steps:
as §1

Data set [5] has as its system Pharbitis purpurea (PHBPU). The data set can be described thus: Post-emergence herbicidal action against PHBPU. A digest of the protocol: as §1
In data set [6] the test system is Echinochloa crus-galli (ECHCG). The data set is described as follows: Post-emergence herbicidal action against ECHCG. An outline of the steps: as §1
In the next data set the test system is Lolium rigidum (LOLRI). The data set is described as follows: Post-emergence herbicidal action against LOLRI. A digest of the protocol: as §1
In another data set the test system is Oryza sativa (ORYSA). Conditions: crop plant compatibility. A digest of the protocol: (§2)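 Greenhouse crops in sandy loam sprayed post-emergence at the one-leaf stage, 2–3 weeks after sowing, with WP or EC formulations in water plus 0.5% additive at 600 l/ha. Damage rated visually about 3 weeks later versus untreated controls (0% = like control, 100% = dead); suffixes a–c denote different doses.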

The subject of the next data set is Zea mays (ZEAMX). Conditions: for Post-emergence action against ZEAMX in % (crop plant compatibility): 20 g/ha, effect in comparison to untreated controls; for Post-emergence action against ZEAMX in %: crop plant compatibility, 80 g/ha, effect vs untreated controls. A digest of the protocol:
as §2

The test system of the next data set is Avena fatua (AVEFA). The data set is described as follows: Post-emergence herbicidal action against AVEFA. Conditions: visual rating about 3 weeks after treatment. An outline of the steps:
as §1

Data set [7] deals with Amaranthus retroflexus (AMARE). The data set can be described thus: Post-emergence herbicidal action against AMARE. Conditions: 320 g/ha, visual rating about 3 weeks after treatment. An outline of the steps:
as §1

Where [8] appears, read: 20 g/ha, effect vs untreated controls.
Setting [9] is: 80 g/ha, effect in comparison to untreated controls.

Read-outs that look alike come from different tables or passages of the source.

With `COC(=O)CCOC(=O)[C@@H](C)Oc1nn(-c2ccccn2)c(-c2ccc(F)nc2)c1Br` [Example I-290], in the data set on Viola tricolor (VIOTR) (320 g/ha), the “Post-emergence action against VIOTR in %” value was 80%. Moreover, the “Post-emergence action against ALOMY in %” value in data set [1] (320 g/ha) was 90%. For the same molecule, the “Post-emergence action against SETVI in %” value in the data set with Setaria viridis (SETVI) (dosage 80 g/ha) and in the data set with Setaria viridis (SETVI) (dosage 320 g/ha) was 90% each time. Also, the “Post-emergence action against DIGSA in %” value in data set [2] (80 g/ha) and in data set [2] (320 g/ha) was 90% in each case. Also, the “Post-emergence action against POLCO in %” value in data set [3] is listed as 80%. Also, the “Post-emergence action against VERPE in %” value is 80% in [4] (320 g/ha, VERPE) and 80% in data set [4] (dosage 80 g/ha). Besides, the “Post-emergence action against PHBPU in %” value in data set [5] (dosage 320 g/ha) came out at 90%. The entries for the “Post-emergence action against ECHCG in %” value in data set [6] (dosage 80 g/ha) and in [6] (dosage 320 g/ha) were 80% and 90%, respectively. For the same molecule, the “Post-emergence action against LOLRI in %” value in the data set with Lolium rigidum (LOLRI) (dosage 320 g/ha) was 80%. For the same molecule, the “Post-emergence action against ORYSA in %” value in the data set on Oryza sativa (ORYSA) (setting [8]) was 0%; in the data set with Oryza sativa (ORYSA) (setting [9]), 10%. Besides, the “Post-emergence action against ZEAMX in % (crop plant compatibility)” value in the data set on Zea mays (ZEAMX) turned out to be 0%. Further, the “Post-emergence action against ZEAMX in %” value with Zea mays (ZEAMX) is listed as 10%.
Regarding `COC(=O)C(C)OC(=O)C(C)Oc1nn(-c2ccccn2)c(-c2ccc(F)nc2)c1Br` (stereo not drawn) [Example I-288], the “Post-emergence action against VIOTR in %” value in the data set with Viola tricolor (VIOTR) (320 g/ha) is 80%. Also, the “Post-emergence action against ALOMY in %” value in data set [1] (320 g/ha) came to 90%. Moreover, the “Post-emergence action against SETVI in %” value with Setaria viridis (SETVI) (dosage 80 g/ha) and in the data set with Setaria viridis (SETVI) (dosage 320 g/ha) was 90% throughout. The “Post-emergence action against AVEFA in %” value in the data set on Avena fatua (AVEFA) (80 g/ha) is reported as 80%; in the data set on Avena fatua (AVEFA) (320 g/ha) it was 90%. In addition, the “Post-emergence action against DIGSA in %” value in [2] (80 g/ha) came to 80%; in data set [2] (320 g/ha) it was 90%. The “Post-emergence action against POLCO in %” value in data set [3] is reported as 80%. Further, the “Post-emergence action against VERPE in %” value in data set [4] (320 g/ha, VERPE) was determined as 80%; in data set [4] (dosage 80 g/ha) it was 80%. Besides, the “Post-emergence action against PHBPU in %” value in data set [5] (dosage 80 g/ha) is reported as 80%; in data set [5] (dosage 320 g/ha) it was 90%. Moreover, the “Post-emergence action against ECHCG in %” value in data set [6] (dosage 320 g/ha) was determined as 80%. Besides, the “Post-emergence action against LOLRI in %” value in the data set with Lolium rigidum (LOLRI) (dosage 80 g/ha) and in the data set with Lolium rigidum (LOLRI) (dosage 320 g/ha) was 80% each time. The entries for the “Post-emergence action against ORYSA in %” value in the data set with Oryza sativa (ORYSA) (setting [8]) and in the data set with Oryza sativa (ORYSA) (setting [9]) were 0% and 10%, respectively.
`COC(=O)C(C)OC(=O)C(C)Oc1nn(-c2ccccn2)c(-c2ccc(F)nc2)c1Cl` (stereo not drawn) [Example I-299]: the “Post-emergence action against VIOTR in %” value is recorded as 80% with Viola tricolor (VIOTR) (80 g/ha) and 90% in the data set on Viola tricolor (VIOTR) (320 g/ha). Also, the “Post-emergence action against ALOMY in %” value in data set [1] (80 g/ha) stood at 80%; in [1] (320 g/ha), 90%. Further, the “Post-emergence action against SETVI in %” value in the data set on Setaria viridis (SETVI) (dosage 320 g/ha) came out at 90%. Also, the “Post-emergence action against AVEFA in %” value in the data set on Avena fatua (AVEFA) (80 g/ha) and with Avena fatua (AVEFA) (320 g/ha) was 80% in each case. In addition, the results for the “Post-emergence action against DIGSA in %” value in data set [2] (80 g/ha) and in data set [2] (320 g/ha) were 80% and 90%, respectively. The “Post-emergence action against POLCO in %” value in [3] amounted to 80%. The “Post-emergence action against VERPE in %” value in [4] (320 g/ha, VERPE) is given as 80%; in [4] (dosage 80 g/ha), 80%. For the same molecule, the “Post-emergence action against AMARE in %” value in data set [7] is on record as 80%. The “Post-emergence action against PHBPU in %” value in data set [5] (dosage 320 g/ha) worked out at 90%. Further, the figures for the “Post-emergence action against ECHCG in %” value in data set [6] (dosage 80 g/ha) and in [6] (dosage 320 g/ha) were 80% and 90%, respectively. Besides, the “Post-emergence action against LOLRI in %” value in the data set on Lolium rigidum (LOLRI) (dosage 80 g/ha) and with Lolium rigidum (LOLRI) (dosage 320 g/ha) was 80% throughout. Besides, the “Post-emergence action against ORYSA in %” value was 10% in the data set with Oryza sativa (ORYSA) (setting [8]) and 20% in the data set on Oryza sativa (ORYSA) (setting [9]). For the same molecule, in the data set on Zea mays (ZEAMX), the “Post-emergence action against ZEAMX in % (crop plant compatibility)” value came to 0%. The “Post-emergence action against ZEAMX in %” value in the data set on Zea mays (ZEAMX) is 10%.
